Values quoted from earlier work in patent US8889663B2, “Formulation for oral transmucosal administration of lipid-lowering drugs” (priority 2008, dated 2014).

How the values were obtained:
[1] = in vivo
[2] = oral, 20 mg or 40 mg dose

volume of organ and tissue space in which the active principle is distributed [1] | average known residual bioavailability [2] | SMILES
exceeding 600 L |  | CC(C)c1c(C(=O)Nc2ccccc2)c(-c2ccccc2)c(-c2ccc(F)cc2)n1CC[C@@H](O)C[C@@H](O)CC(=O)O [atorvastatin]
 | around 17 % of the administered dose | CC[C@H](C)C(=O)O[C@H]1C[C@H](O)C=C2C=C[C@H](C)[C@H](CC[C@@H](O)C[C@@H](O)CC(=O)O)[C@H]21 [provastatin]
